Converted amounts (≈) assume the structure as drawn. A value given as a limit tells only on which side of the number the result lay.

The first assay relates to H37Rv strain of Mycobacterium tuberculosis. Kind of assay: MIC against H37Rv strain. Type of assay: cell-based. To be noted: H37Rv. As for the experimental part:
The purpose of this study was to test activity of selected tetracycline compounds against the H37Rv strain of Mycobacterium tuberculosis. Minimum inhibitory concentrations (MIC) of different tetracycline compounds against H37Rv strain were determined and are shown in Table 8.
Consider `CC(C)CNCc1cc(N(C)C)c2c(c1O)C(=O)C1=C(O)[C@]3(O)C(=O)C(C(N)=O)=C(O)[C@@H](N(C)C)[C@@H]3C[C@@H]1C2` [Compound 14], for which the MIC amounted to 16 µg/mL (≈ 29.5 µM).

The assay is the same for the next values; noted with them: Mycobacterium tuberculosis, H37RV.
Consider `CC(CF)NCc1cc(N(C)C)c2c(c1O)C(=O)C1=C(O)[C@]3(O)C(=O)C(C(N)=O)=C(O)C(N(C)C)[C@@H]3C[C@@H]1C2` (stereo partly shown) [Compound 42], for which the MIC is 32 µg/mL (≈ 58.5 µM).

The compound `CN(C)c1cc(CNC(CF)CF)c(O)c2c1C[C@H]1C[C@H]3[C@H](N(C)C)C(O)=C(C(N)=O)C(=O)[C@@]3(O)C(O)=C1C2=O` [Compound 79] gave an MIC of 32 µg/mL (≈ 56.7 µM).

In turn, `CN(C)c1cc(CNC(=O)Oc2ccccc2)c(O)c2c1C[C@H]1C[C@H]3[C@H](N(C)C)C(O)=C(C(N)=O)C(=O)[C@@]3(O)C(O)=C1C2=O` [Compound 10] registered an MIC of more than 32 µg/mL.

`CN(C)c1cc(CNC(=O)Oc2ccc(F)cc2)c(O)c2c1C[C@H]1C[C@H]3[C@H](N(C)C)C(O)=C(C(N)=O)C(=O)[C@@]3(O)C(O)=C1C2=O` [Compound 23] had an MIC of 32 µg/mL (≈ 51.2 µM).

Still in this assay, the particulars now being: Mycobacterium tuberculosis, H37RV; read-out: MIC.
With `CN(C)c1cc(CNC2CCCC2)c(O)c2c1C[C@H]1C[C@H]3C(N(C)C)C(O)=C(C(N)=O)C(=O)[C@@]3(O)C(O)=C1C2=O` (stereo partly shown) [Compound 43], the MIC is more than 32 µg/mL.

For the compound `CN(C)c1cc(CNC(=O)OCC(Cl)(Cl)Cl)c(O)c2c1C[C@H]1C[C@H]3[C@H](N(C)C)C(O)=C(C(N)=O)C(=O)[C@@]3(O)C(O)=C1C2=O` [Compound 22], the minimal inhibitory concentration (MIC) was more than 32 µg/mL.

As for `CN(C)[C@@H]1C(O)=C(C(N)=O)C(=O)[C@@]2(O)C(O)=C3C(=O)c4c(O)c(CNC(=O)c5cccnc5)cc(CCC5CCCCC5)c4C[C@H]3C[C@@H]12` [Compound 2], the MIC is more than 32 µg/mL.

Turning to `CC(NCc1cc(N(C)C)c2c(c1O)C(=O)C1=C(O)[C@]3(O)C(=O)C(C(N)=O)=C(O)C(N(C)C)[C@@H]3C[C@@H]1C2)C(F)(F)F` (stereo partly shown) [Compound 74], the MIC was more than 32 µg/mL.

In the case of `CCc1cc(CNC(=O)CN(C)C)c(O)c2c1C[C@H]1C[C@H]3[C@@H](N(C)C)C(O)=C(C(N)=O)C(=O)[C@@]3(O)C(O)=C1C2=O` [Compound 36], the MIC came to 32 µg/mL (≈ 57.5 µM).

Consider `CN(C)c1cc(CNC(=O)C2CCCN2)c(O)c2c1C[C@H]1C[C@H]3C(N(C)C)C(O)=C(C(N)=O)C(=O)[C@@]3(O)C(O)=C1C2=O` (stereo partly shown) [Compound 58], for which the MIC came to 16 µg/mL (≈ 27.4 µM).

As to `CN(C)c1cc(CNC(N)=S)c(O)c2c1C[C@H]1C[C@H]3[C@H](N(C)C)C(O)=C(C(N)=O)C(=O)[C@@]3(O)C(O)=C1C2=O` [Compound 61], the MIC is more than 32 µg/mL.

For the compound `CC(C)CNCc1cc(N(C)C)c2c(c1O)C(=O)C1=C(O)[C@]3(O)C(=O)C(C(N)=O)=C(O)[C@@H](N(C)C)[C@@H]3C[C@@H]1C2` [Compound 14], the minimal inhibitory concentration (MIC) is more than 32 µg/mL.

Consider `CCC(C)CNCc1cc(N(C)C)c2c(c1O)C(=O)C1=C(O)[C@]3(O)C(=O)C(C(N)=O)=C(O)[C@@H](N(C)C)[C@@H]3C[C@@H]1C2` (stereo partly shown) [Compound 53], for which the MIC worked out at 16 µg/mL (≈ 28.7 µM).

Take `C=CCCOC(=O)NCc1cc(N(C)C)c2c(c1O)C(=O)C1=C(O)[C@]3(O)C(=O)C(C(N)=O)=C(O)[C@@H](N(C)C)[C@@H]3C[C@@H]1C2` [Compound 9]: the MIC was more than 32 µg/mL.

In the case of `CN(C)C1C(O)=C(C(N)=O)C(=O)[C@@]2(O)C(O)=C3C(=O)c4c(O)c(CNC(=O)C5CC5)cc(-c5ccc(C(C)(C)C)cc5)c4C[C@H]3C[C@@H]12` (stereo partly shown) [Compound 31], the MIC was more than 32 µg/mL.

Regarding `CN(C)c1cc(CN(Cc2ccn[nH]2)Cc2ccn[nH]2)c(O)c2c1C[C@H]1C[C@H]3[C@H](N(C)C)C(O)=C(C(N)=O)C(=O)[C@@]3(O)C(O)=C1C2=O` [Compound 55], the MIC was more than 32 µg/mL.

Take `C[C@H]1c2ccc(CNC(=O)c3ccccc3)c(O)c2C(=O)C2=C(O)[C@]3(O)C(=O)C(C(N)=O)=C(O)[C@@H](N(C)C)[C@@H]3[C@@H](O)[C@@H]21` [Compound 37]: the MIC is more than 32 µg/mL.

Consider `CC(C)CNCc1cc(N(C)C)c2c(c1O)C(=O)C1=C(O)[C@]3(O)C(=O)C(C(N)=O)=C(O)[C@H](N(C)C)[C@@H]3C[C@@H]1C2` [Compound 70], for which the MIC was found to be 16 µg/mL (≈ 29.5 µM).

Turning to `C[C@H]1c2ccc(CNCC(C)(C)C)c(O)c2C(=O)C2=C(O)[C@]3(O)C(=O)C(C(N)=O)=C(O)[C@@H](N(C)C)[C@@H]3[C@@H](O)[C@@H]21` [Compound 33], the MIC was more than 32 µg/mL.

For the compound `CN(C)Cc1cc(N(C)C)c2c(c1O)C(=O)C1=C(O)[C@]3(O)C(=O)C(C(N)=O)=C(O)[C@@H](N(C)C)[C@@H]3C[C@@H]1C2` [Compound 40], the MIC worked out at 32 µg/mL (≈ 62.2 µM).

As for `CN(C)c1cc(CNCCc2ccccc2)c(O)c2c1C[C@H]1C[C@H]3C(N(C)C)C(O)=C(C(N)=O)C(=O)[C@@]3(O)C(O)=C1C2=O` (stereo partly shown) [Compound 5], the MIC is more than 32 µg/mL.

On to `CCc1cc(CNC(C)=O)c(O)c2c1C[C@H]1C[C@H]3C(N(C)C)C(O)=C(C(N)=O)C(=O)[C@@]3(O)C(O)=C1C2=O` (stereo partly shown) [Compound 6], for which the MIC was more than 32 µg/mL.

In the case of `CCc1cc(CNC(=O)c2cccnc2)c(O)c2c1C[C@H]1C[C@H]3[C@H](N(C)C)C(O)=C(C(N)=O)C(=O)[C@@]3(O)C(O)=C1C2=O` [Compound 1], the MIC was more than 32 µg/mL.

Turning to `CN(C)CC(=O)NCc1cc(N(C)C)c2c(c1O)C(=O)C1=C(O)[C@]3(O)C(=O)C(C(N)=O)=C(O)C(N(C)C)[C@@H]3C[C@@H]1C2` (stereo partly shown) [Compound 60], the MIC was found to be 16 µg/mL (≈ 28 µM).

On to `CCCCOC(=O)NCc1cc(N(C)C)c2c(c1O)C(=O)C1=C(O)[C@]3(O)C(=O)C(C(N)=O)=C(O)[C@H](N(C)C)[C@@H]3C[C@@H]1C2` [Compound 12], for which the MIC is more than 32 µg/mL.

Take `CN(C)c1cc(CN2CCCCC2)c(O)c2c1C[C@H]1C[C@H]3[C@H](N(C)C)C(O)=C(C(N)=O)C(=O)[C@@]3(O)C(O)=C1C2=O` [Compound 56]: the MIC came to 16 µg/mL (≈ 28.8 µM).

For `CN(C)c1cc(CN2CCCC2)c(O)c2c1C[C@H]1C[C@H]3C(N(C)C)C(O)=C(C(N)=O)C(=O)[C@@]3(O)C(O)=C1C2=O` (stereo partly shown) [Compound 83], the MIC was determined as 32 µg/mL (≈ 59.2 µM).

With `CC(CCO)NCc1cc(N(C)C)c2c(c1O)C(=O)C1=C(O)[C@]3(O)C(=O)C(C(N)=O)=C(O)[C@H](N(C)C)[C@@H]3C[C@@H]1C2` (stereo partly shown) [Compound 44], the minimum inhibitory concentration (MIC) is more than 32 µg/mL.

With `COCCOC(=O)NCc1cc(N(C)C)c2c(c1O)C(=O)C1=C(O)[C@]3(O)C(=O)C(C(N)=O)=C(O)[C@@H](N(C)C)[C@@H]3C[C@@H]1C2` [Compound 19], the MIC is more than 32 µg/mL.

Turning to `CCCCN(CCCC)Cc1cc(N(C)C)c2c(c1O)C(=O)C1=C(O)[C@]3(O)C(=O)C(C(N)=O)=C(O)C(N(C)C)[C@@H]3C[C@@H]1C2` (stereo partly shown) [Compound 16], the MIC is more than 32 µg/mL.

Consider `C[C@H]1c2ccc(CN3CCCCC3)c(O)c2C(=O)C2=C(O)[C@]3(O)C(=O)C(C(N)=O)=C(O)[C@@H](N(C)C)[C@@H]3[C@@H](O)[C@@H]21` [Compound 72], for which the MIC was found to be 32 µg/mL (≈ 59.1 µM).

Take `CCCCNCc1cc(N(C)C)c2c(c1O)C(=O)C1=C(O)[C@]3(O)C(=O)C(C(N)=O)=C(O)[C@H](N(C)C)[C@@H]3C[C@@H]1C2` [Compound 15]: the MIC is 32 µg/mL (≈ 59 µM).

For the compound `Cc1noc(C)c1S(=O)(=O)NCc1cc(N(C)C)c2c(c1O)C(=O)C1=C(O)[C@]3(O)C(=O)C(C(N)=O)=C(O)[C@@H](N(C)C)[C@@H]3C[C@@H]1C2` [Compound 67], the MIC is more than 32 µg/mL.

The record behind these values is US20250332178A1, “METHODS OF TREATING MYCOBACTERIAL INFECTIONS USING TETRACYCLINE COMPOUNDS” (priority 2018, published 2025).
